From paper PMC4744035, “In Vivo, In Vitro, and In Silico Characterization of Peptoids as Antimicrobial Agents” (PLoS ONE, 2016)
Converted amounts (≈) assume the structure as drawn. Numbered stars: 1 amine (or outer) side, 2 acyl side, 3 side chain; on linkers, the order of the positions; unused ones are H or OH. Square brackets hold non-standard residues; d marks the D form. Peptide text beside a SMILES is read from it. X1 = CC(C)[C@H](C)N(CC(=O)[*:2])[*:1]; Nspe = C[C@H](NCC(=O)O)c1ccccc1; Nlys = NCCCCNCC(=O)O

Key:
[1] = tested on: K. pneumonia 61962 (ESBL); assay: microbe, parasite or virus in culture
Method: (§1) The MICs of test agents were measured using a modified broth micro-dilution method in Difco Mueller Hinton medium, on a panel of bacterial pathogens that were both susceptible and resistant to common antibiotics (S1 File). Briefly, serial dilutions were performed in 0.01% acetic acid containing 0.2% bovine serum albumin at 10-fold the desired final concentration. Ten μL of the 10-fold concentrated test reagents were added to each well of a 96-well polypropylene microtitre plate containing 90 μL of Mueller Hinton media per well. Bacteria were added to the plate from an overnight culture at a final concentration of 2–7 x 10^5 CFU/mL and incubated overnight at 37°C. The MIC is defined as the concentration at which no growth was observed.
(§2) Screening of peptoid antimicrobial activity against a panel of multidrug resistant superbugs was done according to the protocol described in the manuscript. The bacterial strains used in this panel included; P. aeruginosa PAO1 strain H103 [1], P. maltophilia ATCC#13637, S. aureus ATCC#25923 [1], E. faecalis ATCC#29212 [2], and E. cloacae 218R, constitutively expressing Class C chromosomal β-lactamase, were from the Hancock lab strains collection. An MRSA clinical isolate was kindly provided by Anthony Chow (Vancouver General Hospital, Vancouver, Canada). Two Klebsiella pneumoniae and two E. coli clinical isolates expressing extended spectrum β-lactamases (ESBL) were kindly provided by George Zhanel (Health Sciences Centre, Winnipeg, Canada). Vancomycin-resistant clinical isolates of Enterococcus faecalis and E. faecium were obtained from Ana M. Paccagnella (BC Centre for Disease Control, Vancouver, Canada). Three clinical isolates (#9, #198 and #213) of multi-drug resistant P. aeruginosa, were kindly provided by Carlos Kiffer (University of São Paulo, Brazil). […] Three P. aeruginosa clinical isolates of the Liverpool epidemic strain (LES) (H1027, H1030 and LES400) were all kindly provided by Craig Winstanley (University of Liverpool, UK). […] All tested bacterial strains were categorized as biohazard level 2 pathogens.

S. aureus ATCC25923 = assay: microbe, parasite or virus in culture; conditions: ATCC25923
Method: as §1, §2

E. faecalis ATCC29212 = assay: microbe, parasite or virus in culture; conditions: ATCC29212
Method: as §1, §2

[2] = tested on: K. pneumonia 63575 (ESBL); assay: microbe, parasite or virus in culture
Method: as §1, §2

P. maltophilia ATCC13637 = assay: microbe, parasite or virus in culture; conditions: ATCC13637
Method: as §1, §2

P. aeruginosa 198 (MDR) = assay: microbe, parasite or virus in culture; conditions: 198 (MDR)
Method: as §1, §2

P. aeruginosa 9 (MDR) = assay: microbe, parasite or virus in culture; conditions: 9 (MDR)
Method: as §1, §2

[3] = tested on: P. aeruginosa H103 (wild type); assay: microbe, parasite or virus in culture; conditions: H103 (wild type)
Method: as §1, §2

E. coli 63103 (ESBL) = assay: microbe, parasite or virus in culture; conditions: 63103 (ESBL)
Method: as §1, §2

E. faecalis W61950 (VRE) = assay: microbe, parasite or virus in culture; conditions: W61950 (VRE)
Method: as §1, §2

P. aeruginosa 213 (MDR) = assay: microbe, parasite or virus in culture; conditions: 213 (MDR)
Method: as §1, §2

S. aureus C623 (MRSA) = assay: microbe, parasite or virus in culture; conditions: C623
Method: as §1, §2

[4] = tested on: P. aeruginosa H1030 (MDR); assay: microbe, parasite or virus in culture; conditions: P. aeruginosa H1030 (MDR)
Method: as §1, §2

[5] = tested on: P. aeruginosa LES400 (MDR); assay: microbe, parasite or virus in culture; conditions: LES400 (MDR)
Method: as §1, §2

[6] = tested on: P. aeruginosa H1027 (MDR); assay: microbe, parasite or virus in culture; conditions: H1027 (MDR)
Method: as §1, §2

[7] = tested on: E. cloacae 218R Class C β-lactamase; assay: microbe, parasite or virus in culture; conditions: 218R Class C β-lactamase
Method: as §1, §2

E. faecalis F43559 (VRE) = assay: microbe, parasite or virus in culture; conditions: F43559 (VRE)
Method: as §1, §2

E. coli 64771 (ESBL) = assay: microbe, parasite or virus in culture; conditions: 64771 (ESBL)
Method: as §1, §2

E. faecium mic80 (VRE) = assay: microbe, parasite or virus in culture; conditions: mic80 (VRE)
Method: as §1, §2

E. faecium T62764 (VRE) = assay: microbe, parasite or virus in culture; conditions: T62764 (VRE)
Method: as §1, §2

NIH 3T3 cells = assay: Metabolic activity, MTS assay; type: cell-based, mouse
Method: NIH 3T3 mouse fibroblast cells were cultured in complete Dulbecco’s Modified Eagle’s Media. A peptoid solution plate (100 µL per well) was prepared by serial dilution of aqueous peptoid stock solutions in Hank’s balanced salt solution. A day-old cell monolayer was washed thoroughly with Hank’s balanced salt solution and replenished with 100 µL Hank’s balanced salt solution per well. Peptoid solutions were transferred onto the day-old cell monolayers, which contained approximately 5000 cells per well. […] The average of six replicate trials is reported.

erythrocytes = assay: Hemolytic activity (HD10/HD50); type: cell-based
Excerpt: Table 1 Characteristics of antimicrobial peptoids, screened for activity against B. subtilis and E. coli bacterial strains. | column: HD10 / HD50

E. coli ATCC 35218 = type: cell-based
Method: MICs against B. subtilis and E. coli screening bacterial strains were determined using serial dilution in 96-well microtiter plates in accordance with CLSI M7-A6 protocols. Briefly, peptoid solution in cation-adjusted Mueller-Hinton broth was prepared by 2:1 serial dilution with a total volume of 50 µL per well. In experimental wells, 50 µL of bacterial inoculums (1 x 10^6 CFU/mL) were added to the peptoid solutions. Positive controls consisted of 50 µL inoculums added to 50 µL cation-adjusted Mueller-Hinton broth containing no peptoid, while negative controls contained only cation-adjusted Mueller-Hinton broth. […] Experiments were reproducible among three independent replicates, each consisting of two parallel trials.

Row | SMILES | MIC [1] [µg/mL] | MIC (S. aureus ATCC25923) [µg/mL] | MIC (E. faecalis ATCC29212) [µg/mL] | MIC [2] [µg/mL] | MIC (P. maltophilia ATCC13637) [µg/mL] | MIC (P. aeruginosa 198 (MDR)) [µg/mL] | MIC (P. aeruginosa 9 (MDR)) [µg/mL] | MIC [3] [µg/mL] | MIC (E. coli 63103 (ESBL)) [µg/mL] | MIC (E. faecalis W61950 (VRE)) [µg/mL] | MIC (P. aeruginosa 213 (MDR)) [µg/mL] | MIC (S. aureus C623 (MRSA)) [µg/mL] | MIC [5] [µg/mL] | MIC [6] [µg/mL] | MIC [7] [µg/mL] | MIC (E. faecalis F43559 (VRE)) [µg/mL] | MIC (E. coli 64771 (ESBL)) [µg/mL] | MIC (E. faecium mic80 (VRE)) [µg/mL] | MIC (E. faecium T62764 (VRE)) [µg/mL] | ID50 (inhibitory dose, metabolic activity) (NIH 3T3 cells) [µM] | further results
1 | C[C@@H](c1ccccc1)N(CC(N)=O)C(=O)CN(CCCCN)C(=O)CN(CCCCN)C(=O)CN(C(=O)CN(C(=O)CN(CCCCN)C(=O)CN(C(=O)CN(CCCCN)C(=O)CN(CCCCN)C(=O)CN(C(=O)CN(C(=O)CNCCCCN)[C@@H](C)c1ccccc1)[C@@H](C)c1ccccc1)[C@@H](C)c1ccccc1)[C@@H](C)c1ccccc1)[C@@H](C)c1ccccc1 [1-NLys5,11, H-(NLys-Nspe-Nspe-NLys-NLys-Nspe)2-NH2] (H-[Nlys][Nspe][Nspe][Nlys][Nlys][Nspe][Nlys][Nspe][Nspe][Nlys][Nlys][Nspe]-NH2) | 256 (≈ 146 µM) | 64 (≈ 36.5 µM) | 256 (≈ 146 µM) | 128 (≈ 73 µM) | 0.5 (≈ 0.285 µM) | 8 (≈ 4.56 µM) | 64 (≈ 36.5 µM) | 2 (≈ 1.14 µM) | 128 (≈ 73 µM) | 256 (≈ 146 µM) | 8 (≈ 4.56 µM) | 64 (≈ 36.5 µM) | 8 (≈ 4.56 µM) | 0.13 (≈ 0.0741 µM) | 32 (≈ 18.3 µM) | 256 (≈ 146 µM) | 32 (≈ 18.3 µM) | 16 (≈ 9.13 µM) | 8 (≈ 4.56 µM) | 85 | MIC [4]: 64 µg/mL (≈ 36.5 µM); HD10 (hemolytic activity) (erythrocytes): >100 / >100; HD50 (hemolytic activity) (erythrocytes): >100 / >100; MIC E. coli (E. coli ATCC 35218): 50 µM (≈ 87.7 µg/mL)
2 | CC(C)[C@H](C)N(CC(=O)N(CCCCN)CC(=O)N(CC(=O)N(CC(=O)N(CCCCN)CC(=O)N(CC(=O)N(CC(=O)N(CCCCN)CC(=O)N(CC(=O)N(CC(N)=O)[C@@H](C)c1ccccc1)[C@@H](C)c1ccccc1)[C@@H](C)C(C)C)[C@@H](C)C(C)C)[C@@H](C)c1ccccc1)[C@@H](C)c1ccccc1)C(=O)CN(C(=O)CNCCCCN)[C@@H](C)C(C)C [1-Nsdp2,3,8,9, H-(NLys-Nsdp-Nsdp-NLys-Nspe-Nspe)2-NH2] (H-[Nlys][X1][X1][Nlys][Nspe][Nspe][Nlys][X1][X1][Nlys][Nspe][Nspe]-NH2) | 32 (≈ 19 µM) | 4 (≈ 2.38 µM) | 4 (≈ 2.38 µM) | 32 (≈ 19 µM) | 1 (≈ 0.594 µM) | 32 (≈ 19 µM) | 256 (≈ 152 µM) | 8 (≈ 4.75 µM) | 16 (≈ 9.51 µM) | 16 (≈ 9.51 µM) | 8 (≈ 4.75 µM) | 4 (≈ 2.38 µM) | 8 (≈ 4.75 µM) | 2 (≈ 1.19 µM) | 8 (≈ 4.75 µM) | 16 (≈ 9.51 µM) | 8 (≈ 4.75 µM) | 4 (≈ 2.38 µM) | 1 (≈ 0.594 µM) | 19 | MIC [4]: 8 µg/mL (≈ 4.75 µM); HD10 (hemolytic activity) (erythrocytes): 77; HD50 (hemolytic activity) (erythrocytes): > 200; MIC E. coli (E. coli ATCC 35218): 12.5 µM (≈ 21 µg/mL)
3 | C[C@H](NCC(=O)N(CCCCN)CC(=O)N(CC(=O)N(CCCCN)CC(=O)N(CCCCN)CC(=O)N(CC(=O)N(CC(=O)N(CCCCN)CC(=O)N(CC(=O)N(CCCCN)CC(=O)N(CCCCN)CC(=O)N(CC(N)=O)[C@@H](C)c1ccccc1)[C@@H](C)c1ccccc1)[C@@H](C)c1ccccc1)[C@@H](C)c1ccccc1)[C@@H](C)c1ccccc1)c1ccccc1 [1B-NLys4,10, H-(Nspe-NLys-Nspe-NLys-NLys-Nspe)2-NH2] (H-[Nspe][Nlys][Nspe][Nlys][Nlys][Nspe][Nspe][Nlys][Nspe][Nlys][Nlys][Nspe]-NH2) | 256 (≈ 146 µM) | 256 (≈ 146 µM) | 256 (≈ 146 µM) | 128 (≈ 73 µM) | 0.25 (≈ 0.143 µM) | 32 (≈ 18.3 µM) | 128 (≈ 73 µM) | 4 (≈ 2.28 µM) | 128 (≈ 73 µM) | 256 (≈ 146 µM) | 16 (≈ 9.13 µM) | 256 (≈ 146 µM) | 16 (≈ 9.13 µM) | 0.25 (≈ 0.143 µM) | 32 (≈ 18.3 µM) | 256 (≈ 146 µM) | 32 (≈ 18.3 µM) | 32 (≈ 18.3 µM) | 16 (≈ 9.13 µM) | 83 | HD10 (hemolytic activity) (erythrocytes): >200 / >200; HD50 (hemolytic activity) (erythrocytes): >200 / >200; MIC E. coli (E. coli ATCC 35218): 50 µM (≈ 87.7 µg/mL)
4 | C[C@@H](c1ccccc1)N(CC(N)=O)C(=O)CN(C(=O)CN(CCCCN)C(=O)CN(C(=O)CN(C(=O)CN(CCCCN)C(=O)[C@@H]1CCCN1C(=O)CN(C(=O)CN(CCCCN)C(=O)CN(C(=O)CN(C(=O)CNCCCCN)[C@@H](C)c1ccccc1)[C@@H](C)c1ccccc1)[C@@H](C)c1ccccc1)[C@@H](C)c1ccccc1)[C@@H](C)c1ccccc1)[C@@H](C)c1ccccc1 [Peptoid 1-Pro6, H-NLys-Nspe2-NLys-Nspe-L-Pro-(NLys-Nspe2)2-NH2] (H-[Nlys][Nspe][Nspe][Nlys][Nspe]P[Nlys][Nspe][Nspe][Nlys][Nspe][Nspe]-NH2) | 64 (≈ 36.5 µM) | 4 (≈ 2.28 µM) | 8 (≈ 4.56 µM) | 32 (≈ 18.2 µM) | 2 (≈ 1.14 µM) | 16 (≈ 9.12 µM) | 256 (≈ 146 µM) | 8 (≈ 4.56 µM) | 16 (≈ 9.12 µM) | 32 (≈ 18.2 µM) | 16 (≈ 9.12 µM) | 8 (≈ 4.56 µM) | 8 (≈ 4.56 µM) | 4 (≈ 2.28 µM) | 16 (≈ 9.12 µM) | 8 (≈ 4.56 µM) | 8 (≈ 4.56 µM) | 8 (≈ 4.56 µM) | 1 (≈ 0.57 µM) | 18 | MIC [4]: 16 µg/mL (≈ 9.12 µM); HD10 (hemolytic activity) (erythrocytes): 83; HD50 (hemolytic activity) (erythrocytes): > 200; MIC E. coli (E. coli ATCC 35218): 12.5 µM (≈ 21.9 µg/mL)
